The source of these data is US7879795B2, “Enhancement of tigecycline potency using efflux pump inhibitors” (Mpex Pharmaceuticals, Inc., priority 2004, dated 2011).

Converted amounts (≈) assume the structure as drawn.

Test [1] deals with Enterobacter cloacae 25. Kind of test: Antibiotic MIC with fixed concentration of compound 21, Enterobacter cloacae 25. The class given is cell-based. Conditions: tigecycline alone.
Test [2] deals with Enterobacter aerogenes 19. Kind of test: Antibiotic MIC with fixed concentration of compound 21, Enterobacter aerogenes 19. The class given is cell-based. As to conditions: tigecycline alone.
For test [3], the system named is Klebsiella pneumonia 79. Kind of test: Antibiotic MIC with fixed concentration of compound 21, Klebsiella pneumonia 79. The class given is cell-based. Conditions: tigecycline alone. The protocol:
(§1) To further characterize the clinical potential of tigecycline/EPI combinations, the microbiological activity of tigecycline in combination with compound 21 was investigated using clinical isolates of P. aeruginosa and other gram-negative bacteria. In several experiments, described below, the impact of a fixed concentration of compound 21 (2.5 μg/ml) on susceptibility to tigecycline was determined.
(§2) The impact of compound 21 on the activity of tigecycline against representative members of Enterobacteriacaea was also tested.

The test system of test [4] is Citrobacter freundii 13. Put plainly: Antibiotic MIC with fixed concentration of compound 21, Citrobacter freundii 13. Format: cell-based. Conditions: tigecycline alone. The protocol: as §1, §2
The subject of test [5] is Klebsiella pneumonia 73. Put plainly: Antibiotic MIC with fixed concentration of compound 21, Klebsiella pneumonia 73. As to conditions: tigecycline alone. Format: cell-based. The protocol: as §1, §2
For test [6], the system named is PAM 1626, Four pumps non-functional. Kind of test: Tigecycline potentiation checkerboard assay, PAM 1626. Format: cell-based, P. aeruginosa. Conditions: Pseudomonas aeruginosa, read-out: Tigecycline MIC in the presence of Compound 21. As for the experimental part: (§3) The ability of compound 21 to increase susceptibility to tigecycline was also assessed. The tigecycline potentiating activity of compound 21 was assessed by the checkerboard assay (Antimicrobial Combinations, Antibiotics in Laboratory Medicine, ed. Victor Lorian, M.D., Fourth edition, 1996, pp 333-338, which is incorporated herein by reference in its entirety) using a broth micro-dilution method performed as recommended by the CSLI (Clinical and Laboratory Standards Institute, formerly NCCLS) guidelines (National Committee for Clinical Laboratory Standards 2003. Methods for Dilution Antimicrobial Susceptibility Tests for Bacteria That Grow Aerobically—Sixth Edition; Approved Standard. NCCLS Document M7-A6, Vol 20 No. 2). In this assay, multiple dilutions of the two drugs, compound 21 and tigecycline, were tested alone and in combination, at concentrations equal to, above and below their respective minimal inhibitory concentrations (MICs). […] The stock solution was further diluted in Mueller Hinton Broth (MHB). Stock solutions were stored at −80° C.
(§4) The checkerboard assay was performed in microtiter plates. Tigecycline was diluted in the x axis, each column containing a single concentration of tigecycline. Compound 21 was diluted in the y axis, each row containing an equal concentration of the EPI. […] The assay was performed in MHB with a final bacterial inoculum of 5×10^5 CFU/ml (from an early-log phase culture). The microtiter plates were incubated for 20 hours at 35° C. and then read using a microtiter plate reader (Molecular Devices) at 650 nm, as well as by visual observation using a microtiter plate-reading mirror.

In test [7] the test system is laboratory strains of P. aeruginosa. Kind of test: Tigecycline susceptibility of laboratory strains of P. aeruginosa over-expressing or lacking efflux pumps. The class given is cell-based. As to conditions: compared to the wild-type strain PAM1020. As for the experimental part: as §3, §4
In test [8] the test system is Klebsiella pneumonia. Conditions: cited from earlier work.
The test system of test [9] is P. aeruginosa strain PAM 1032. Kind of test: Mouse model of P. aeruginosa sepsis infection (tigecycline 50% effective dose). Format: in vivo. Conditions: mice, tigecycline SC at 0 and 2 hours; Reed and Meunch. As for the experimental part: Tigecycline and compound 21 were prepared in sterile 0.9% saline. Seventy Swiss-Webster mice (Harlan laboratories) with body weights ranging from 22 to 25 grams at the start of the study were used. Upon receipt, the animals were housed 5 per cage in a room with a controlled environment and were acclimated to laboratory conditions for at least 24 hours prior to the start of dosing. Animals were provided food and water ad libitum. The health status of the animals was determined during the acclimation period and unhealthy animals were not placed on study. Each animal was identified by marking their tails with indelible ink and each cage was identified by animal, group, and study number.
P. aeruginosa strain PAM 1032 was grown in Mueller-Hinton Broth (MHB) at 35° C. under constant aeration. After 20 hours, the inoculum was sub-cultured into fresh MHB and allowed to regrow at 35° C., under constant aeration, for 4 hours. The inoculum was adjusted to ca. 4×10^7 CFU/ml by correlation of absorbance at 600 nm with predetermined plate counts. The inoculum was then diluted 2-fold in 14% hog-gastric mucin (Sigma, St. Louis, Mo.) for a final inoculum concentration of 2×10^7 CFU/ml. […] At 0 and 2 hours following infection, tigecycline was administered by the subcutaneous route and compound 21 was administered by the intraperitoneal route. […] The susceptibility of the test strain (P. aeruginosa PAM1032, […] MexAB-OprM) to tigecycline was 4 ug/ml, the susceptibility of the test strain to tigecycline in the presence of 2.5 μg/mL of compound 21 was 0.25 μg/mL.

For test [10], the system named is Strain S41, a clinical isolate. Kind of test: microbe, parasite or virus in culture. The class given is cell-based, P. aeruginosa.
Test [11] relates to PAM 2466, mexR1, MexAB-OprM and MexXY-OprM over-expressed. Put plainly: microbe, parasite or virus in culture. Format: cell-based, P. aeruginosa. As to conditions: Pseudomonas aeruginosa, read-out: Tigecycline MIC in the presence of Compound 21. As for the experimental part: as §3, §4
Test [12] has as its system PAM 1723, MexAB-OprM over-expressed, ΔMexCD-OprJ ΔMexEF-OprN. Kind of test: microbe, parasite or virus in culture. The class given is cell-based, P. aeruginosa. Conditions: Pseudomonas aeruginosa, read-out: Tigecycline MIC in the presence of Compound 21. As for the experimental part:
as §3, §4

The test system of test [13] is PAM 1738, MexCD-OprJ over-expressed, ΔMexAB-OprM ΔMexEF-OprN. Put plainly: microbe, parasite or virus in culture. Format: cell-based, P. aeruginosa. As to conditions: Pseudomonas aeruginosa, read-out: Tigecycline MIC in the presence of Compound 21. As for the experimental part:
as §3, §4

The subject of test [14] is PAM 1323, mexZ, MexXY-OprM over-expressed, MexAB-OprM low level. Kind of test: microbe, parasite or virus in culture. Format: cell-based, P. aeruginosa. As to conditions: Pseudomonas aeruginosa, read-out: Tigecycline MIC in the presence of Compound 21. As for the experimental part:
as §3, §4

The subject of test [15] is PAM 1020, wt. Put plainly: Tigecycline potentiation checkerboard assay, PAM 1020. Format: cell-based, P. aeruginosa. As to conditions: Pseudomonas aeruginosa, read-out: Tigecycline MIC in the presence of Compound 21. The protocol: as §3, §4
For test [16], the system named is 110 clinical isolates of P. aeruginosa. Put plainly: Tigecycline susceptibility of P. aeruginosa clinical isolates with fixed concentration of compound 21. The class given is cell-based. As to conditions: tigecycline alone; 110 clinical isolates. The protocol:
as §1
Results from an experiment using 110 clinical isolates of P. aeruginosa are presented in FIG. 1, as the distribution of tigecycline MICs with or without the EPI potentiator.

Test [17] deals with PAM 1753, MexEF-OprN over-expressed. Put plainly: Tigecycline potentiation checkerboard assay, PAM 1753. The class given is cell-based, P. aeruginosa. Conditions: Pseudomonas aeruginosa, read-out: Tigecycline MIC in the presence of Compound 21. As for the experimental part:
as §3, §4

Test [18] has as its system PAM 1032, nalB, MexAB-OprM over-expressed. Put plainly: microbe, parasite or virus in culture. The class given is cell-based, P. aeruginosa. The protocol: as §3, §4
P. aeruginosa strain PAM 1032 was grown in Mueller-Hinton Broth (MHB) at 35° C. under constant aeration. After 20 hours, the inoculum was sub-cultured into fresh MHB and allowed to regrow at 35° C., under constant aeration, for 4 hours. The inoculum was adjusted to ca. 4×10^7 CFU/ml by correlation of absorbance at 600 nm with predetermined plate counts. The inoculum was then diluted 2-fold in 14% hog-gastric mucin (Sigma, St. Louis, Mo.) for a final inoculum concentration of 2×10^7 CFU/ml. […] At 0 and 2 hours following infection, tigecycline was administered by the subcutaneous route and compound 21 was administered by the intraperitoneal route.

As to `CN(C)c1cc(NC(=O)CNC(C)(C)C)c(O)c2c1C[C@H]1C[C@H]3[C@H](N(C)C)C(O)=C(C(N)=O)C(=O)[C@@]3(O)C(O)=C1C2=O` [Tigecycline], the Tig (MIC) in test [1] was found to be 2 µg/mL; in test [2] it was 4 µg/mL; in test [3], 4 µg/mL; in test [4], 4 µg/mL; in test [5] it was 2 µg/mL. The MIC in [6] stood at 0.0005 µg/mL; in [10] (Pseudomonas aeruginosa, read-out: Tigecycline MIC, alone), 1 µg/mL (≈ 1.71 µM); in test [11], 0.008 µg/mL; in test [12], 0.004 µg/mL; in [13], 0.001 µg/mL; in test [14], 0.004 µg/mL. For the same molecule, the MIC in [15] amounted to 0.002 µg/mL; in test [17], 0.002 µg/mL; in test [18] (Pseudomonas aeruginosa, read-out: Tigecycline MIC in the presence of Compound 21) it was 0.004 µg/mL. For the same molecule, the “increase in susceptibility to tigecycline on deleting all four efflux pumps (PAM1626)” value in test [7] is on record as 4 fold. In addition, the “frequency of emergence of efflux-mediated tigecycline resistance” value in test [8] was ~4×10^−8. Also, the “50% effective dose of tigecycline alone” value in test [9] is on record as “greater than 200 mg/kg”. The “Mutation Frequency on Tigecycline at 4 μg/ml, alone” value in test [10] (strain S41, 4× MIC) was 8.3 × 10^−8. In addition, the MIC50, Tigecycline in test [16] came out at 2 µg/mL. Moreover, the MIC90, Tigecycline in test [16] was 8 µg/mL. The “susceptibility of the test strain to tigecycline” value in test [18] (PAM1032, tigecycline alone) is 4 µg/mL.
